Legend:
Pip/PPIR ON = target: T1, Pip/PPIR ON (Streptomyces coelicolor, UniProt Q9ADN3); assay type: cell-based
T1 sequence (Q9ADN3 1-252): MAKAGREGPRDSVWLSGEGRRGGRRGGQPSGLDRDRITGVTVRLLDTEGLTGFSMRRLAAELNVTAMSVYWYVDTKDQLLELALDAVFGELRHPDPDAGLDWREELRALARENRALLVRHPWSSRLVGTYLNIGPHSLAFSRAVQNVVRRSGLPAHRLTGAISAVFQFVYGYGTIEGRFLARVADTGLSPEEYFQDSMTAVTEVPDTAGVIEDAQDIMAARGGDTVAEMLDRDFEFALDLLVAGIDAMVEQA
Source text: The Classical PIT/PPIR system belongs to the "OFF" family of regulation concepts since gene expression is activated upon withdrawal of the regulating antibiotic. However, in some applications such as gene therapy and tissue engineering an "ON" system which is induced upon addition of streptogramin antibiotics is more desirable. We therefore constructed a new Pip-based binary PION system which consists of a PPIR ON promoter and a set of two different transrepressors. PPIR ON consists of a PIR3 module containing 3 consecutive Pip binding elements (SEQ ID NO:21; Example 3) placed in front of the strong viral SV40 promoter. Transrepressors such as PIT3, which consists of a protein fusion between Pip and the KRAB silencing domain of the human kox-1 gene (Deuschle et al., 1995, Mol. Cell Biol. 15: 1907-1914) and PIT4, which is simply Pip expressed in a eukaryotic configuration, bind to PIR3 in front of PSV40 and block transcription of this promoter. Besides sterical transcription blocking the silencing domain of PIT3 can additionally downregulate PSV40 activity. […]
Table 9: Comparison of the regulation characteristics of the PipON systems. CHO-K1 cells were simultaneously cotransfected with the plasmids indicated and the SEAP readout (slope a of the p-nitrophenolphosphate-based light absorbance time courses) was determined in the presence and absence of pristinamycin 48 hr post transfection. […]
In order to assess the regulation potential of different streptogramin antibiotics, pMF225 or pMF150 encoding PIT4 were cotransfected with pMF208 (PPIR ON-SEAP) into CHO-K1 cells and the SEAP induction was measured 48 following transfection (as described above in Example 1) and addition of the following streptogramin antibiotics: (i) PI, the group B streptogramin component of pristinamycin; (ii) Pyostacin, the human oral antibiotic; (iii) Synercid, the first injectable semi-synthetic pristinamycin derivative effective against most multidrug resistant human pathogenic bacteria and (iv) virginiamycin used as growth promotant in livestock feed. […]

PIT/PPIR system = target: T2, PIT/PPIR system (Streptomyces coelicolor, UniProt Q9ADN3); assay: Positive feedback vector pMF170 (PPIR-GFP-IRES-PIT-pA), GFP fluorescence microscopy; assay type: cell-based; conditions: pMF170 in CHO-K1, BHK-21 or HeLa cells
T2 construct: pMF156/pTWIN in CHO cells, PPIR-SEAP or GFP reporter
T2 sequence (Q9ADN3 1-252): T1 sequence (Q9ADN3 1-252)
Source text: These positive feedback regulation vectors that were constructed contain both the green fluorescent protein GFP and PIT in a dicistronic, PPIR -driven configuration.
For construction of the autoregulatory system, PIT was excised from pMF156 by EcoRI/HindIII and cloned into the polylinker of the eukaryotic expression vector pSBC-2 (EcoRI/HindIII). As a pSBC-2 derivative, the resulting plasmid pMF169 is compatible to the pSBC-1 derivative pMF164 (PPIR -GFP) and allows fusion of both expression units via their SspI/NotI restriction sites, thereby generating pMF170. pMF170 contains a dicistronic PPIR -regulated expression unit encoding GFP in the first and PIT in the second cistron. Cap-independent translation initiation of the second cistron is enabled by a picornaviral internal ribosomal entry site (IRES) encoded upstream of PIT.

pristinamycin I [PI]
SEAP readout (slope of the p-nitrophenolphosphate-based light absorbance time courses) (Pip/PPIR ON; +PI (2 μg/ml) column, CHO + pMF208 + pMF225, 48 hr post transfection): 0.019 ± 0.002 | SEAP Production (slope of the p-nitrophenolphosphate-based light absorbance time courses) (Pip/PPIR ON; CHO-K1 + pMF225 + pMF208, 2 μg/ml group B component, 48 hr post transfection): 0.65 ± 0.03 | Induction factor (Pip/PPIR ON; PIT4-PPIR ON configuration (pMF225-pMF208)): 25 | GFP-expression in the presence of PI (PIT/PPIR system): completely repressed

— US6287813A, “Antibiotic-based gene regulation system” (Cistronics Cell Technology GmbH, priority 1999, dated 2001)
